In PubChem BioAssay (NCI):
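Dose response: 5 concentrations. Exposure: 48 h. Format: 96-well plates. Endpoint: linear interpolation; highest concentration if not reached. At the TGI there is no net growth.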

Experiments:
Assay in all cases: inhibition of tumour cell growth, NCI panel, 48 h
OVCAR-5 ovarian = system: OVCAR-5 ovarian
HOP-62 NSCLC = system: HOP-62 NSCLC
COLO 205 colon = system: COLO 205 colon
OVCAR-4 ovarian = system: OVCAR-4 ovarian
XF 498 CNS = system: XF 498 CNS
SK-MEL-2 melanoma = system: SK-MEL-2 melanoma
M19-MEL melanoma = system: M19-MEL melanoma
ACHN renal = system: ACHN renal
HCT-15 colon = system: HCT-15 colon
EKVX NSCLC = system: EKVX NSCLC
RPMI-8226 leukemia = system: RPMI-8226 leukemia
CAKI-1 renal = system: CAKI-1 renal
HCT-116 colon = system: HCT-116 colon
UACC-62 melanoma = system: UACC-62 melanoma
DMS 273 small cell lung = system: DMS 273 small cell lung
MOLT-4 leukemia = system: MOLT-4 leukemia
NCI-H226 lung = system: NCI-H226 lung
U251 CNS = system: U251 CNS
SNB-75 CNS = system: SNB-75 CNS
SR leukemia = system: SR leukemia
SNB-78 CNS = system: SNB-78 CNS
HCC-2998 colon = system: HCC-2998 colon
CCRF-CEM leukemia = system: CCRF-CEM leukemia
HT29 colon = system: HT29 colon
SNB-19 CNS = system: SNB-19 CNS
SK-OV-3 ovarian = system: SK-OV-3 ovarian
SK-MEL-28 melanoma = system: SK-MEL-28 melanoma
NCI-H23 lung = system: NCI-H23 lung
K-562 leukemia = system: K-562 leukemia
RXF-631 renal = system: RXF-631 renal
SW-620 colon = system: SW-620 colon
IGROV1 ovarian = system: IGROV1 ovarian
OVCAR-8 ovarian = system: OVCAR-8 ovarian
DLD-1 colon = system: DLD-1 colon
LOX IMVI melanoma = system: LOX IMVI melanoma
M14 melanoma = system: M14 melanoma
NCI-H522 lung = system: NCI-H522 lung
SF-268 CNS = system: SF-268 CNS
786-0 renal = system: 786-0 renal
UO-31 renal = system: UO-31 renal
LXFL 529 NSCLC = system: LXFL 529 NSCLC
NCI-H460 lung = system: NCI-H460 lung
A549 NSCLC = system: A549 NSCLC
KM12 colon = system: KM12 colon
SN12C renal = system: SN12C renal
MALME-3M melanoma = system: MALME-3M melanoma
UACC-257 melanoma = system: UACC-257 melanoma
SK-MEL-5 melanoma = system: SK-MEL-5 melanoma
SF-539 CNS = system: SF-539 CNS
KM20L2 colon = system: KM20L2 colon
OVCAR-3 ovarian = system: OVCAR-3 ovarian
DMS 114 small cell lung = system: DMS 114 small cell lung
SF-295 CNS = system: SF-295 CNS
A498 renal = system: A498 renal
HOP-18 NSCLC = system: HOP-18 NSCLC
HL-60(TB) leukemia = system: HL-60(TB) leukemia
TK-10 renal = system: TK-10 renal
HOP-92 NSCLC = system: HOP-92 NSCLC
RXF 393 renal = system: RXF 393 renal

Structure (SMILES): Cc1nc2c(nc1Cl)nc(Oc1ccc(Cl)cc1)c1ccccc12
- TGI (OVCAR-5 ovarian): > 100 µM
- TGI (HOP-62 NSCLC): 84.1 µM
- TGI (COLO 205 colon): > 100 µM
- TGI (OVCAR-4 ovarian): > 100 µM
- TGI (XF 498 CNS): > 100 µM
- TGI (SK-MEL-2 melanoma): > 100 µM
- TGI (M19-MEL melanoma): > 100 µM
- TGI (ACHN renal): > 100 µM
- TGI (HCT-15 colon): > 100 µM
- TGI (EKVX NSCLC): > 100 µM
- TGI (RPMI-8226 leukemia): > 100 µM
- TGI (CAKI-1 renal): > 100 µM
- TGI (HCT-116 colon): > 100 µM
- TGI (UACC-62 melanoma): > 100 µM
- TGI (DMS 273 small cell lung): > 100 µM
- TGI (MOLT-4 leukemia): > 100 µM
- TGI (NCI-H226 lung): 79.9 µM
- TGI (U251 CNS): 40.6 µM
- TGI (SNB-75 CNS): > 100 µM
- TGI (SR leukemia): > 100 µM
- TGI (SNB-78 CNS): > 100 µM
- TGI (HCC-2998 colon): > 100 µM
- TGI (CCRF-CEM leukemia): > 100 µM
- TGI (HT29 colon): > 100 µM
- TGI (SNB-19 CNS): > 100 µM
- TGI (SK-OV-3 ovarian): > 100 µM
- TGI (SK-MEL-28 melanoma): > 100 µM
- TGI (NCI-H23 lung): 85 µM
- TGI (K-562 leukemia): > 100 µM
- TGI (RXF-631 renal): > 100 µM
- TGI (SW-620 colon): > 100 µM
- TGI (IGROV1 ovarian): > 100 µM
- TGI (OVCAR-8 ovarian): 68.2 µM
- TGI (DLD-1 colon): > 100 µM
- TGI (LOX IMVI melanoma): > 100 µM
- TGI (M14 melanoma): > 100 µM
- TGI (NCI-H522 lung): > 100 µM
- TGI (SF-268 CNS): > 100 µM
- TGI (786-0 renal): 38.3 µM
- TGI (UO-31 renal): 73.7 µM
- TGI (LXFL 529 NSCLC): > 100 µM
- TGI (NCI-H460 lung): > 100 µM
- TGI (A549 NSCLC): > 100 µM
- TGI (KM12 colon): > 100 µM
- TGI (SN12C renal): > 100 µM
- TGI (MALME-3M melanoma): > 100 µM
- TGI (UACC-257 melanoma): > 100 µM
- TGI (SK-MEL-5 melanoma): > 100 µM
- TGI (SF-539 CNS): > 100 µM
- TGI (KM20L2 colon): > 100 µM
- TGI (OVCAR-3 ovarian): > 100 µM
- TGI (DMS 114 small cell lung): > 100 µM
- TGI (SF-295 CNS): > 100 µM

Structure (SMILES): COc1ccc2[nH]c3c(C)c4c(c(C)c3c2c1)CN(C)CC4
- TGI (OVCAR-5 ovarian): 54.2 µM
- TGI (HOP-62 NSCLC): 32.4 µM
- TGI (COLO 205 colon): 31.2 µM
- TGI (OVCAR-4 ovarian): 34.8 µM
- TGI (A498 renal): 32.2 µM
- TGI (SK-MEL-2 melanoma): 31.5 µM
- TGI (M19-MEL melanoma): 31.6 µM
- TGI (HOP-18 NSCLC): 31.3 µM
- TGI (ACHN renal): 35 µM
- TGI (HCT-15 colon): 35.3 µM
- TGI (HL-60(TB) leukemia): 4.65 µM
- TGI (RPMI-8226 leukemia): 93.3 µM
- TGI (CAKI-1 renal): 34.1 µM
- TGI (HCT-116 colon): 11.8 µM
- TGI (UACC-62 melanoma): 34.8 µM
- TGI (DMS 273 small cell lung): 29.6 µM
- TGI (MOLT-4 leukemia): 74.1 µM
- TGI (NCI-H226 lung): 30.8 µM
- TGI (U251 CNS): 32 µM
- TGI (SNB-75 CNS): 36.4 µM
- TGI (SR leukemia): 83.8 µM
- TGI (SNB-78 CNS): 80.6 µM
- TGI (HCC-2998 colon): 31.4 µM
- TGI (CCRF-CEM leukemia): > 100 µM
- TGI (HT29 colon): 20.2 µM
- TGI (SNB-19 CNS): 48.5 µM
- TGI (SK-OV-3 ovarian): 30 µM
- TGI (SK-MEL-28 melanoma): 27.5 µM
- TGI (K-562 leukemia): 25.8 µM
- TGI (RXF-631 renal): 58.4 µM
- TGI (SW-620 colon): 15.5 µM
- TGI (IGROV1 ovarian): 35.9 µM
- TGI (OVCAR-8 ovarian): 25.8 µM
- TGI (DLD-1 colon): 93.7 µM
- TGI (LOX IMVI melanoma): 27.6 µM
- TGI (M14 melanoma): 30.5 µM
- TGI (NCI-H522 lung): 33.4 µM
- TGI (SF-268 CNS): 48.3 µM
- TGI (786-0 renal): 27.8 µM
- TGI (UO-31 renal): 30 µM
- TGI (LXFL 529 NSCLC): 36.1 µM
- TGI (NCI-H460 lung): 24.8 µM
- TGI (A549 NSCLC): 33.9 µM
- TGI (KM12 colon): 27.1 µM
- TGI (SN12C renal): 30.6 µM
- TGI (MALME-3M melanoma): 35 µM
- TGI (TK-10 renal): 42.9 µM
- TGI (UACC-257 melanoma): 32.7 µM
- TGI (SK-MEL-5 melanoma): 32 µM
- TGI (SF-539 CNS): 29.8 µM
- TGI (KM20L2 colon): 34.8 µM
- TGI (HOP-92 NSCLC): 32.2 µM
- TGI (OVCAR-3 ovarian): 30.3 µM
- TGI (RXF 393 renal): 36.2 µM
- TGI (DMS 114 small cell lung): 33.8 µM
- TGI (SF-295 CNS): 32.9 µM
